Test results from US11572590B2, “Methods for evaluating tumor cell spheroids using 3D microfluidic cell culture device” (Dana-Farber Cancer Institute, Inc., priority 2017, dated 2023).
Read-outs that look alike come from different tables or passages of the source.

What was measured:
off-target kinases [1] = target: T1, off-target kinases (Homo sapiens, UniProt Q9BZL6); assay: SelectScreen Kinase Profiling, single point inhibition and IC50 for off-target kinases; format: biochemical; conditions: PRKD2 (PKD2), ATP Km app, ZLYTE
T1 sequence (Q9BZL6 1-878): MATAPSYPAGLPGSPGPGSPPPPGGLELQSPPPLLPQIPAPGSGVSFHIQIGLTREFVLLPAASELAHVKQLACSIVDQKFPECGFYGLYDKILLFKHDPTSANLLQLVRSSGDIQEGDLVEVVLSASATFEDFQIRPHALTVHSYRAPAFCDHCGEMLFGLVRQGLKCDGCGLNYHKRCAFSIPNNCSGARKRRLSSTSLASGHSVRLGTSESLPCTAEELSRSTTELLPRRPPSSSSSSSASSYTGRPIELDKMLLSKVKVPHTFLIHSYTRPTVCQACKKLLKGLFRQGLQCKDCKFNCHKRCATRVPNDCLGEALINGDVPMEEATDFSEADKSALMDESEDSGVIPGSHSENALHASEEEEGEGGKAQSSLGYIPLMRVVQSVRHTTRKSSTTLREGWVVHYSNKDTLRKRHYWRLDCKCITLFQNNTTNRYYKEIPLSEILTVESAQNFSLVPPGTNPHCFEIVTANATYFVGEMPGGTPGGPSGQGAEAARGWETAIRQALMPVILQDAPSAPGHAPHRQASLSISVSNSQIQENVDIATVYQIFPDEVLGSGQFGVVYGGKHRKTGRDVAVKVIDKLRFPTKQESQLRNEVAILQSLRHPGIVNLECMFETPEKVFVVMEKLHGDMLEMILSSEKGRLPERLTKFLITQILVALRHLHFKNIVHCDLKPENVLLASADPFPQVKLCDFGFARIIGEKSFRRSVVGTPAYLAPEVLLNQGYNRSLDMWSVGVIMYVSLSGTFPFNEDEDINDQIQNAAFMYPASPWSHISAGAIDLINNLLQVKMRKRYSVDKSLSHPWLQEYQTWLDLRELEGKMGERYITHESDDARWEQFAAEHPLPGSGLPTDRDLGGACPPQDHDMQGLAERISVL

off-target kinases [2] = target: T2, off-target kinases (Homo sapiens, UniProt Q8IYT8); assay: as above; format: biochemical; conditions: ULK2, LanthaScreen Binding
T2 sequence (Q8IYT8 1-1036): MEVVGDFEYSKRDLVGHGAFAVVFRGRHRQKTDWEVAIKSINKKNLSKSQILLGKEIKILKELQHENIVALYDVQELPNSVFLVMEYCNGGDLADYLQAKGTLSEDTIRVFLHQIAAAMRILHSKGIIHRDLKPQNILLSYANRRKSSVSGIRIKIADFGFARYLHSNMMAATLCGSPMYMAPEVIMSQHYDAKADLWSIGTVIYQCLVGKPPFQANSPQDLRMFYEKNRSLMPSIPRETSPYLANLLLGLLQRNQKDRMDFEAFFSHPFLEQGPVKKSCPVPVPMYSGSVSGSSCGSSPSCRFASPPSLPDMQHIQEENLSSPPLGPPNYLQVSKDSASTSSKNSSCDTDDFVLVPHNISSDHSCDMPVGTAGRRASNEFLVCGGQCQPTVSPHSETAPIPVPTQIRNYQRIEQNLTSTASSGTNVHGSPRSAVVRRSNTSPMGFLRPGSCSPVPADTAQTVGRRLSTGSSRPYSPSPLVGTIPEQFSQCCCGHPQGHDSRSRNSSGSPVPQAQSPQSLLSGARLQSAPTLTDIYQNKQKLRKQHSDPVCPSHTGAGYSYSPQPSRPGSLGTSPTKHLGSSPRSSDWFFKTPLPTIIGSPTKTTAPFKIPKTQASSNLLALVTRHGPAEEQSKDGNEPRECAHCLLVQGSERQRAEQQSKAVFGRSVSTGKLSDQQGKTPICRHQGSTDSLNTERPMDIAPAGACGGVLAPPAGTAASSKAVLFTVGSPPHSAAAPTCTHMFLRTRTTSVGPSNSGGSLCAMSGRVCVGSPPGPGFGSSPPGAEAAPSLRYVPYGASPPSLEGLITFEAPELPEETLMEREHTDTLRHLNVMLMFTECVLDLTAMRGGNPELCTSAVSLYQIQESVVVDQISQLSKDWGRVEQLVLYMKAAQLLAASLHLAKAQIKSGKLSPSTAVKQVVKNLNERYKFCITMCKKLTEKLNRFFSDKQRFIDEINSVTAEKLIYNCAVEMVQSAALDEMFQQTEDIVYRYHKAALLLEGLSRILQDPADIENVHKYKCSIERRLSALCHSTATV

`N#Cc1cc(-c2ncnc(Nc3ccc(N4CCN(C5COC5)CC4)cc3)n2)ccc1OC1CCOCC1` [Compound 1, 5-(4-((4-(4-(oxetan-3-yl)piperazin-1-yl)phenyl)amino)-1,3,5-triazin-2-yl)-2-((tetrahydro-2H-pyran-4-yl)oxy)benzonitrile] was tested, and the inhibition (off-target kinases [1]; read-out: % Inhibition 1) was 99%, the inhibition (off-target kinases [1]; read-out: % Inhibition 2) was 97% and the inhibition (off-target kinases [1]; read-out: % Inhibition Avg) was 98%. For the same molecule, the inhibition (off-target kinases [2]; read-out: % Inhibition 1) was 86%, the inhibition (off-target kinases [2]; read-out: % Inhibition 2) was 90% and the inhibition (off-target kinases [2]; read-out: % Inhibition Avg) was 88%.
